Like-named read-outs stand apart in the source and are kept apart here.

In assay [1] the target is T1, WT-MγS (Mus musculus, UniProt O35486).
T1 construct: made in house; host or cells: E. coli BL21(DE3) pLysS, pET17b vector
T1 sequence (O35486 1-178): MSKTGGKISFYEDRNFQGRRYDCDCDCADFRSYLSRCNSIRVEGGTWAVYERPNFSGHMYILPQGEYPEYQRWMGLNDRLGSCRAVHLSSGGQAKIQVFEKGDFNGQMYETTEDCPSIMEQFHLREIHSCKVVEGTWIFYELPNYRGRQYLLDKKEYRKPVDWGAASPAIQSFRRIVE
In words: bis-ANS binding study, WT-MγS. The note with it: read-out: Percent inhibition of binding of bis-ANS, WT-MγS. The method, then:
Extrinsic fluorescence spectra were recorded using bis-ANS, a well-known surface hydrophobicity probe. The spectra were recorded between 400 and 600 nm after exciting at 390 nm. The experiment was performed on 10 μM of HγD and MγS in 50 mM K3PO4 buffer with and without our candidate drugs (100 μM). Bis-ANS stock solution was prepared in methanol whose final percentage was maintained below 7 after mixing with proteins ([81]).

The target in assay [2] is T1, WT-MγS. Description: End-point heat-mediated turbidity assay, WT-MγS. The note with it: for inhibition at 500 µM: read-out: Percent Inhibition of heat mediated aggregation, WT-MGS; for Effect on MγS absorbance: 400 μM drug, 72 °C, protein above 0.5 mg/ml. It counts as biochemical. The procedure:
For end-point assays, HγD and MγS (1 mg/ml, 100 μl) in 50 mM K3PO4 buffer (pH 7.2) in set of triplicates in transparent flat bottom 96-well plates were heated at 72 °C for 20 min in the presence and absence of selected drugs at varying concentrations. Absorbance was measured at 600 nm with a SpectraMax iD5 (Molecular Devices). […]
Final DMSO concentration was 5% including in control samples. Microtiter plates were first incubated for 10 min at 72 °C and reincubated for 10 more min. Absorbance was measured at both 10 and 20 min total incubation time.

In assay [3] the target is T2, W43R mutant of HγD (Homo sapiens, UniProt P07320, W43R).
T2 construct: made in house; host or cells: E. coli BL21(DE3) pLysS
T2 sequence (P07320 1-174 W43R): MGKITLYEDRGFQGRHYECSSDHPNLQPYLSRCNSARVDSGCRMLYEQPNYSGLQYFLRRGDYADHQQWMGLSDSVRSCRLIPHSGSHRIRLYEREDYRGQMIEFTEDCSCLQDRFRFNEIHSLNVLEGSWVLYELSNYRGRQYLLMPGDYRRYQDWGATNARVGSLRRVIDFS
In words: Kinetic turbidity assay at 42 °C of W43R mutant. It counts as biochemical. The note with it: for Effect on aggregation of W43R mutant: 0–500 μM, 42 °C for 200 min, G at 400 and 500 μM; for inhibition at 500 µM: 500 μM drug, 42 °C, 200 min, read-out: Inhibition of aggregation (%) W43R. The method, then: Aggregation kinetics assays at 600 nm in the presence of varying concentrations (0, 100, 200, 300, 400, and 500 μM) of our selected drugs were also performed on mutants of HγD (W43R, W42Q, R14C, and R58H) and MγS (F9S) at a concentration of 1 mg/ml in 50 mM K3PO4 buffer (pH 7.2) in a total volume of 100 μl. WT-HγD and WT-MγS crystallin served as controls for their respective mutant versions. For W43R mutant, aggregation assay was done at 42 °C for a total of 200 min. Absorbance was monitored every 10 min. For R14C and R58H mutants, end-point turbidity assay was done at 72 °C for 20 min. […] All the experiments were run in duplicates or triplicates.

The target of assay [4] is T3, MγS (Mus musculus, UniProt O35486).
T3 construct: made in house; host or cells: E. coli BL21(DE3) pLysS, pET17b vector
T3 sequence (O35486 1-178): T1 sequence (O35486 1-178)
In words: Steady-state tryptophan fluorescence quenching, MγS. It counts as binding. The procedure: Tryptophan fluorescence can be used for studying conformational changes resulting from protein–drug interactions ([44]). Fluorescence quenching of aromatic fluorophores in HγD and MγS by drugs C and G at three different temperatures (25, 30, and 37 °C) was studied in the presence of varying concentrations of drug C and G (0–250 μM). As shown in Figs. S5A and S6A, both HγD and MγS have a strong emission peak at 330 nm when excited at 295 nm. In both cases, quenching occurs with gradual addition of C and G at all three temperatures. Overall, quenching of Trp fluorescence emission is at highest at 25 °C (Figs. S5A and S6A) followed by 30 °C and lowest at 37 °C. […] The slope of plot Fo/F versus [Q] gives Ksv (Figs. S5B and S6B), whereas Kb is obtained from intercept of plot log (Fo/F − 1) versus log[Q] (Figs. S5C and S6C). […] For drug M, Kb values are of the order 10^2 M^−1 only. Fluorescence quenching can be either because of random collision between the molecules (dynamic interaction) or because of actual affinity between a protein pocket and drug (static interaction). Dynamic interactions are weaker and nonspecific in nature, whereas static interactions are stronger and more specific ([47]). For more information on the type of interaction, Kq was calculated and compared with the standard value of 2 × 10^10 M^−1s^−1, which is the maximum scatter collision quenching constant of various quenchers with biopolymers ([48]). […] Furthermore, the differential response of Ksv toward temperature change also clarifies the type of quenching. In static quenching, Ksv decreases with an increase in temperature because of the formation of complex with protein, which undergoes dissociation on increasing temperature.
To gauge the strength of the major forces involved in drug–protein complex formation, change in free energy was calculated using Gibbs–Helmholtz equation (Equation 3).(3) ΔG=-RTlnKb ([50]) where, R is gas constant and its value is […], T is absolute temperature (Kelvin) and Kb is binding constant whose value is already calculated using Equation 2. […] Free energy changes are negative at all three temperatures, being maximal at 25 °C. For C, G, and M interaction with HγD, ΔG values were −6.4, −7.9, and −1.9 kcal/mol (at 25 °C), that is, similar to those obtained by molecular docking as described later. These values also reflect the fact that drug M had the least protective effect on unfolding or aggregation of various γ-crystallins (Figs. 2 and S4).
All the steady-state fluorescence measurements were recorded on Fluoromax Spectrofluorometer (Horiba Scientific). For fluorescence quenching measurements, 10 μM of both HγD and MγS crystallins were titrated with varying concentrations of drugs C, G, and M (0–250 μM) at 25, 30, and 37 °C. These samples were excited at 295 nm, and the fluorescence emission was collected from 310 to 410 nm.

[5] abbreviates: 500 μM drug, end point of turbidity assay 72 °C 20 min.

For `COC(=O)/C=C/C(C)=C\C=C\C(C)=C\C=C\C=C(C)\C=C\C=C(C)\C=C\C(=O)O` [drug B, Bixin], the inhibition at 100 µM in assay [1] (10 μM protein, 100 μM drug) was 11.94 ± 0.0018%. For the same molecule, the inhibition at 500 µM in assay [2] (setting [5]) worked out at 55.5 ± 8.03%.

With `Cc1cc(C(C#N)c2ccc(Cl)cc2)c(Cl)cc1NC(=O)c1cc(I)cc(I)c1O` (stereo not drawn) [drug C, Closantel], in assay [3], the “Effect on aggregation of W43R mutant” value is recorded as “worsened the aggregation” and the inhibition at 500 µM is -34%. In assay [1], the inhibition at 100 µM stood at 27.16 ± 0.0011%. In assay [2], the “Effect on MγS absorbance” value is listed as “blocked absorbance” and the inhibition at 500 µM is 80.5 ± 1.87%. Further, in assay [4] (25 °C), the KSV came to 4.828 M^−1 ×10^3, the Kq worked out at 0.847 M^−1 s^−1 ×10^12 and the ΔG is −7.0 kcalM^−1. In assay [4] (30 °C), this molecule showed a KSV of 4.249 M^−1 ×10^3, a Kq of 0.745 M^−1 s^−1 ×10^12 and a ΔG of −6.2 kcalM^−1. Further, in assay [4] (37 °C), the KSV worked out at 2.988 M^−1 ×10^3, the Kq worked out at 0.524 M^−1 s^−1 ×10^12 and the ΔG is −4.1 kcalM^−1.

As to `CC(C)=CCCC1(C)C=Cc2c(O)c3c(c(CC=C(C)C)c2O1)OC12C(=CC4CC1C(C)(C)OC2(C/C=C(/C)C(=O)O)C4O)C3=O` (stereo not drawn) [drug D, dihydrogambogic acid], the inhibition at 100 µM in assay [1] was found to be 19.49 ± 0.0018%. For the same molecule, the inhibition at 500 µM in assay [2] was determined as 80.4 ± 0.44%.

With `CC(C)=CCC[C@]1(C)C=Cc2c(O)c3c(c(CC=C(C)C)c2O1)O[C@]12C(=C[C@@H]4C[C@H]1C(C)(C)O[C@@]2(C/C=C(/C)C(=O)O)C4=O)C3=O` [drug G, Gambogic acid], in assay [3], the “Effect on aggregation of W43R mutant” value was “protected the mutant against aggregation” and the inhibition at 500 µM was 52%. The inhibition at 100 µM in assay [1] amounted to 40.72 ± 0.0008%. In assay [2], the “Effect on MγS absorbance” value is “blocked absorbance” and the inhibition at 500 µM was determined as 80.5 ± 2.45%. In assay [4] (25 °C), the KSV came out at 7.283 M^−1 ×10^3 and the Kq was found to be 1.37 M^−1 s^−1 ×10^12. In assay [4] (30 °C), this molecule returned a KSV of 8.034 M^−1 ×10^3, a Kq of 1.4 M^−1 s^−1 ×10^12 and a ΔG of −5.6 kcalM^−1. In assay [4] (37 °C), this molecule displayed a KSV of 4.905 M^−1 ×10^3, a Kq of 0.86 M^−1 s^−1 ×10^12 and a ΔG of −6.5 kcalM^−1.

Regarding `O=C(O)CCCCCCCCCCCC[C@@H]1C=CCC1` [drug M, Chaulmoogric acid], in assay [3], the “Effect on aggregation of W43R mutant” value is recorded as “no effect” and the inhibition at 500 µM came to 14%. For the same molecule, in assay [1] (10 μM protein, 100 μM drug), the inhibition at 100 µM came out at 1.95 ± 0.0017%. Also, the inhibition at 500 µM in assay [2] (setting [5]) was 46.3 ± 4.23%. In addition, in assay [4] (25 °C), the KSV is reported as 0.793 M^−1 ×10^3, the Kq turned out to be 0.14 M^−1 s^−1 ×10^12 and the ΔG was −2.7 kcalM^−1. In assay [4] (30 °C), the KSV was 0.733 M^−1 ×10^3, the Kq was 0.13 M^−1 s^−1 ×10^12 and the ΔG is −2.6 kcalM^−1. In assay [4] (37 °C), the KSV was found to be 0.491 M^−1 ×10^3 and the ΔG is given as −2.2 kcalM^−1.

Turning to `Oc1c(Cl)cc(Cl)c(Cl)c1Cc1c(O)c(Cl)cc(Cl)c1Cl` [drug X, Hexachlorophene], the inhibition at 100 µM in assay [1] was found to be 10.17 ± 0.0014%. Also, the inhibition at 500 µM in assay [2] stood at 39.7 ± 3.42%.

(Values after article PMC9525908, “α-Crystallin chaperone mimetic drugs inhibit lens γ-crystallin aggregation: Potential role for cataract prevention” (The Journal of Biological Chemistry, 2022).)
